Reference: patent publication US6706755B2, “Cyclopentane heptan(ene) acyl sulfonamide, 2-alkyl or 2-arylalkyl, or 2-heteroarylalkenyl derivatives as therapeutic agents” (Allergan, Inc., priority 2001, dated 2004)

System: Dogs
Experiment: Effect on dog intraocular pressure, applanation pneumatonometry
Assay type: in vivo
Conditions: for time (Hr) of IOP max % decrease / time (Hr) of IOP max mmHg / IOP max mmHg / IOP max % decrease: 25 μl to the ocular surface, concentration 0.03%; for IOP max mmHg / IOP max % decrease: at the time of maximum given in the cell; for IOP max % decrease: vehicle 0.1% polysorbate 80 and 10 mM TRIS base; for ocular hypotensive effect in dogs: topical ocular administration, result in words
Procedure: The compounds were prepared at the said concentrations in a vehicle comprising 0.1% polysorbate 80 and 10 mM TRIS base. Dogs were treated by administering 25 μl to the ocular surface, the contralateral eye received vehicle as a control. Intraocular pressure was measured by applanation pneumatonometry. […]

Structure (SMILES)	time (Hr) of IOP max % decrease	time (Hr) of IOP max mmHg	IOP max mmHg	IOP max % decrease	ocular hypotensive effect in dogs
Cc1cc(CC[C@H](O)/C=C/[C@@H]2[C@@H](C/C=C\CCCC(=O)NS(C)(=O)=O)[C@@H](O)C[C@H]2O)sc1Br [Compound 9a, N-((Z)-7-{(1R,2R,3R,5S)-2-[(S)-(E)-5-(5-Bromo-4-methylthiophen-2-yl)-3-hydroxypent-1-enyl]-3,5-dihydroxycyclopentyl}hept-5-enoyl)methanesulfonamide]	72 h	72 h	−2.8 mmHg	−13.6%	pronounced ocular hypotensive effect
Cc1sc(CC[C@H](O)/C=C/[C@@H]2[C@@H](C/C=C\CCCC(=O)NS(C)(=O)=O)[C@@H](O)C[C@H]2O)cc1Cl [Compound 9b, N-((Z)-7-{(1R,2R,3R,5S)-2-[(S)-(E)-5-(4-Chloro-5-methylthiophen-2-yl)-3-hydroxypent-1-enyl]-3,5-dihydroxycyclopentyl}hept-5-enoyl)methanesulfonamide]	96 h	96 h	−4.9 mmHg	−26.5%	pronounced ocular hypotensive effect
CS(=O)(=O)NC(=O)CCC/C=C\C[C@@H]1[C@@H](/C=C/[C@@H](O)CCc2ccc(Cl)s2)[C@H](O)C[C@@H]1O [Compound 9c]	102 h	102 h	−4.2 mmHg	−23.8%	pronounced ocular hypotensive effect
CS(=O)(=O)NC(=O)CCC/C=C\C[C@@H]1[C@@H](/C=C/[C@@H](O)CCc2ccc(Br)s2)[C@H](O)C[C@@H]1O [Compound 9e]	100 h	100 h	−2.0 mmHg	−11.7%	pronounced ocular hypotensive effect
CCS(=O)(=O)NC(=O)CCC/C=C\C[C@@H]1[C@@H](/C=C/[C@@H](O)CCc2cc(C)c(Br)s2)[C@H](O)C[C@@H]1O [Compound 10a, Ethanesulfonic acid ((Z)-7-{(1R,2R,3R,5S)-2-[(S)-(E)-5-(5-bromo-4-methylthiophen-2-yl)-3-hydroxypent-1-enyl]-3,5-dihydroxycyclopentyl}hept-5-enoyl)amide]	4 h	4 h	−5.1 mmHg	−24.9%	pronounced ocular hypotensive effect
Cc1cc(CC[C@H](O)/C=C/[C@@H]2[C@@H](C/C=C\CCCC(=O)N(COC(=O)C(C)(C)C)S(C)(=O)=O)[C@@H](O)C[C@H]2O)sc1Br [Compound 18a]	24 h	24 h	−3.9 mmHg	−22.0%	pronounced ocular hypotensive effect
Cc1sc(CC[C@H](O)/C=C/[C@@H]2[C@@H](C/C=C\CCCC(=O)NS(=O)(=O)c3ccccc3)[C@@H](O)C[C@H]2O)cc1Cl [Compound 19b]	74 h	74 h	−2.6 mmHg	−13.0%	pronounced ocular hypotensive effect
